Source: article PMC9628809, “Icaritin Preparation from Icariin by a Special Epimedium Flavonoid-Glycosidase from Aspergillus sp.y848 Strain” (Journal of Microbiology and Biotechnology, 2022)

Tested on: T1, Epimedium flavonoid-glycosidase
T1 construct: native secreted enzyme purified from culture supernatant (DEAE-cellulose DE-52)
Test: TLC scanning of substrate and products, Lineweaver-Burk plot
Type: biochemical, Aspergillus sp. y848
Conditions: 0.02 M acetate buffer pH 5.0, 40°C; icariin 12.5-50 mM

Km: 15.6 mM
SMILES: COc1ccc(-c2oc3c(CC=C(C)C)c(O[C@@H]4O[C@H](CO)[C@@H](O)[C@H](O)[C@H]4O)cc(O)c3c(=O)c2O[C@@H]2O[C@@H](C)[C@H](O)[C@@H](O)[C@H]2O)cc1 [icariin]
